Numbers after ± are expanded uncertainties.
Conditions: Crystal; DSC

Triple point temperature: 471.65 ± 1.8 K
Structure (SMILES): O=C(c1cc(Cc2n[nH]c(=O)c3ccccc23)ccc1F)N1CCN(C(=O)C2CC2)CC1 [olaparib]
